Test results published in patent publication US12077538B2, “Diacylglycerol kinase (DGK) alpha inhibitors and uses thereof” (priority 2022, dated 2024).

tested on: Human Pan T cells; assay: IL-2 Release Detection Assay; format: cell-based; conditions: T-cell, IL-2 in supernatant by ELISA, anti-CD3 pre-coated plate, 24 hours
Protocol: Add dilutions of compounds into the cells and incubate at 37° C. &5% CO2 for 24 hours. IL-2 in cell supernatant was detected by ELISA Kit (R&D, DY202). […] Top and Bottom: Plateaus in same units as Y. Log EC50: same log units as X. Activation fold: Top activation/DMSO control. Activation % at 100 nM: Activation of non-linear regression equation curve at the concentration of 100 nM/DMSO control*100%.

Compared with `COCCOc1cc2c(nc1Cl)c(N1CCC(c3nc4cc(C)ccc4o3)CC1)cc(=O)n2C` [Example 15, 6-chloro-7-(2-methoxyethoxy)-1-methyl-4-(4-(5-methylbenzo[d]oxazol-2-yl)piperidin-1-yl)-1,5-naphthyridin-2(1H)-one], `COCCOc1cc2c(nc1C#N)c(N1CCC(c3nc4cc(C)ccc4o3)CC1)cc(=O)n2C` [Example 16, 3-(2-methoxyethoxy)-5-methyl-8-(4-(5-methylbenzo[d]oxazol-2-yl)piperidin-1-yl)-6-oxo-5,6-dihydro-1,5-naphthyridine-2-carbonitrile] is 2.8-fold lower in EC50: 963 nM for the first, 346 nM for the second.

First: Cc1ccc2oc(C3CCN(c4cc(=O)n(C)c5cc(OCCCO)c(C#N)nc45)CC3)nc2c1 [Example 24, 3-(3-hydroxypropoxy)-5-methyl-8-(4-(5-methylbenzo[d]oxazol-2-yl)piperidin-1-yl)-6-oxo-5,6-dihydro-1,5-naphthyridine-2-carbonitrile]
Second: Cc1ccc2oc(C3CCN(c4cc(=O)n(C)c5cc(OCCO)c(C#N)nc45)CC3)nc2c1 [Example 23, 3-(2-hydroxyethoxy)-5-methyl-8-(4-(5-methylbenzo[d]oxazol-2-yl)piperidin-1-yl)-6-oxo-5,6-dihydro-1,5-naphthyridine-2-carbonitrile]
The EC50 of the first is 1.7-fold higher: 512 nM for the first, 294 nM for the second. The second is the more potent here.

Compared with `Cn1c(=O)cc(N2CCC(c3nc4cc(F)ccc4o3)CC2)c2nc(C#N)ccc21` [Example 12, 8-(4-(5-fluorobenzo[d]oxazol-2-yl)piperidin-1-yl)-5-methyl-6-oxo-5,6-dihydro-1,5-naphthyridine-2-carbonitrile], `Cc1ccc2oc(C3CCN(c4cc(=O)n(C)c5ccc(C#N)nc45)CC3)nc2c1` [Example 1, 5-methyl-8-(4-(5-methylbenzo[d]oxazol-2-yl)piperidin-1-yl)-6-oxo-5,6-dihydro-1,5-naphthyridine-2-carbonitrile] is 1.7-fold higher in EC50: 262 nM for the first, 452 nM for the second. The first is the more potent here.

First: Cn1c(=O)cc(N2CCC(c3nc4cc(F)ccc4o3)CC2)c2nc(Cl)ccc21 [Example 11, 6-chloro-4-(4-(5-fluorobenzo[d]oxazol-2-yl)piperidin-1-yl)-1-methyl-1,5-naphthyridin-2(1H)-one]
Second: Cc1ccc2oc(C3CCN(c4cc(=O)n(C)c5ccc(Cl)nc45)CC3)nc2c1 [Example 10, 6-chloro-1-methyl-4-(4-(5-methylbenzo[d]oxazol-2-yl)piperidin-1-yl)-1,5-naphthyridin-2(1H)-one]
The EC50 of the first is 1.5-fold lower: 832 nM for the first, 1250 nM for the second. The first is the more potent here.

Compared with `Cc1ccc2oc(C3CCN(c4cc(=O)n(C)c5ccc(C#N)cc45)CC3)nc2c1` [Example 3, 1-methyl-4-(4-(5-methylbenzo[d]oxazol-2-yl)piperidin-1-yl)-2-oxo-1,2-dihydroquinoline-6-carbonitrile], `Cc1ccc2oc(C3CCN(c4cc(=O)n(C)c5ccc(Cl)cc45)CC3)nc2c1` [Example 2, 6-chloro-1-methyl-4-(4-(5-methylbenzo[d]oxazol-2-yl)piperidin-1-yl)quinolin-2(1H)-one] is 1.9-fold higher in EC50: 174 nM for the first, 326 nM for the second. The first is the more potent here.

Compared with `Cc1ccc2oc(C3CCN(c4c(C#N)c(=O)n(C)c5ccc(Cl)nc45)CC3)nc2c1` [Example 9, 6-chloro-1-methyl-4-(4-(5-methylbenzo[d]oxazol-2-yl)piperidin-1-yl)-2-oxo-1,2-dihydro-1,5-naphthyridine-3-carbonitrile], `Cc1ccc2oc(C3CCN(c4nc(=O)n(C)c5ccc(Cl)cc45)CC3)nc2c1` [Example 4, 6-chloro-1-methyl-4-(4-(5-methylbenzo[d]oxazol-2-yl)piperidin-1-yl)quinazolin-2(1H)-one] is 2.4-fold lower in EC50: 476 nM for the first, 200 nM for the second.

Compared with `Cc1ccc2oc(C3CCN(c4cc(=O)n(C)c5cc(OC6CCOC6)c(C#N)nc45)CC3)nc2c1` (stereo not drawn) [Example 21, 5-methyl-8-(4-(5-methylbenzo[d]oxazol-2-yl)piperidin-1-yl)-6-oxo-3-((tetrahydrofuran-3-yl)oxy)-5,6-dihydro-1,5-naphthyridine-2-carbonitrile], `Cc1ccc2oc(C3CCN(c4cc(=O)n(C)c5cc(O[C@H]6CCOC6)c(C#N)nc45)CC3)nc2c1` [Example 29, (S)-5-methyl-8-(4-(5-methylbenzo[d]oxazol-2-yl)piperidin-1-yl)-6-oxo-3-((tetrahydrofuran-3-yl)oxy)-5,6-dihydro-1,5-naphthyridine-2-carbonitrile] is 3.4-fold higher in EC50: 132 nM for the first, 446 nM for the second. The first is the more potent here.

Compared with `Cc1ccc2oc(C3CCN(c4cc(=O)n(C)c5cc(NCCO)c(Cl)nc45)CC3)nc2c1` [Example 17, 6-chloro-7-((2-hydroxyethyl)amino)-1-methyl-4-(4-(5-methylbenzo[d]oxazol-2-yl)piperidin-1-yl)-1,5-naphthyridin-2(1H)-one], `Cc1ccc2oc(C3CCN(c4cc(=O)n(C)c5cc(NCCO)c(C#N)nc45)CC3)nc2c1` [Example 18, 3-((2-hydroxyethyl)amino)-5-methyl-8-(4-(5-methylbenzo[d]oxazol-2-yl)piperidin-1-yl)-6-oxo-5,6-dihydro-1,5-naphthyridine-2-carbonitrile] is 9.8-fold lower in EC50: 1200 nM for the first, 123 nM for the second. The second is the more potent here.

Compound `Cc1ccc2oc(N3CC=C(c4cc(=O)n(C)c5cc(OCCO)c(C#N)nc45)CC3)nc2c1` [Example 30, 3-(2-hydroxyethoxy)-5-methyl-8-(1-(5-methylbenzo[d]oxazol-2-yl)-1,2,3,6-tetrahydropyridin-4-yl)-6-oxo-5,6-dihydro-1,5-naphthyridine-2-carbonitrile] has an EC50 of 682 nM.

tested on: not listed separately; assay: Pharmacokinetic Profile Evaluation (mouse PK); format: in vivo, CD-1 mice; conditions: CD-1, plasma, oral administration at 5 mg/kg, read-out: AUC00~∞
Protocol: Species and strain: CD-1 mice of SPF. Source: Sino-British SIPPR/BK Lab Animal Ltd, Shanghai. 3 mice were intravenously administrated with given compounds (Formulation: 5% DMSO+10% Solutol+85% Saline) or orally gavage administrated with given compounds (Formulation: 5% DMSO+10% Solutol+85% Saline). The blood samples were taken via cephalic vein at timepoints 0.083 h, 0.25 h, 0.5 h, 1 h, 2 h, 4 h, 8 h and 24 h after intravenous administration or at timepoints 0.25 h, 0.5 h, 1 h, 2 h, 4 h, 6 h, 8 h and 24 h after oral gavage administration, 30 μL/time point. Blood samples were placed in tubes containing K2-EDTA and stored on ice until centrifuged. The blood samples were centrifuged at 6800 g for 6 minutes at 2-8° C. within 1 h after collected and stored frozen at approximately −80° C. An aliquot of 10 μL plasma samples were protein precipitated with 200 μL MeOH in which contains 10 ng/mL Verapamil (IS). The mixture was vortexed for 1 min and centrifuged at 18000 g for 7 min. Transfer 180 μL supernatant to 96 well plates. An aliquot of 6 μL supernatant was injected for LC-MS/MS analysis by LC-MS/MS-04 (API4000) instrument. The analytical results were confirmed using quality control samples for intra-assay variation. The accuracy of >66.7% of the quality control samples should be between 80-120% of the known value(s). Standard set of parameters including Area Under the Curve (AUC(0-t) and AUC(0-∞)), elimination half-live (T1/2), maximum plasma concentration (Cmax), will be calculated using noncompartmental analysis modules in FDA certified pharmacokinetic program Phoenix WinNonlin 7.0 (Pharsight, USA).

Compared with `Cc1ccc2oc(C3CCN(c4cc(=O)n(C)c5cc(OCCO)c(C#N)nc45)CC3)nc2c1` [Example 23, 3-(2-hydroxyethoxy)-5-methyl-8-(4-(5-methylbenzo[d]oxazol-2-yl)piperidin-1-yl)-6-oxo-5,6-dihydro-1,5-naphthyridine-2-carbonitrile], `Cc1ccc2oc(C3CCN(c4cc(=O)n(C)c5cc(O[C@@H]6CCOC6)c(C#N)nc45)CC3)nc2c1` [Example 28, (R)-5-methyl-8-(4-(5-methylbenzo[d]oxazol-2-yl)piperidin-1-yl)-6-oxo-3-((tetrahydrofuran-3-yl)oxy)-5,6-dihydro-1,5-naphthyridine-2-carbonitrile] is 3.5-fold lower in AUC: 12100 ng·h/mL for the first, 3460 ng·h/mL for the second.

`Cn1c(=O)cc(N2CCC(c3nc4cc(F)ccc4o3)CC2)c2nc(C#N)ccc21` [Example 12, 8-(4-(5-fluorobenzo[d]oxazol-2-yl)piperidin-1-yl)-5-methyl-6-oxo-5,6-dihydro-1,5-naphthyridine-2-carbonitrile] and `Cc1ccc2oc(C3CCN(c4cc(=O)n(C)c5ccc(C#N)nc45)CC3)nc2c1` [Example 1, 5-methyl-8-(4-(5-methylbenzo[d]oxazol-2-yl)piperidin-1-yl)-6-oxo-5,6-dihydro-1,5-naphthyridine-2-carbonitrile] are within 1.5-fold of each other in AUC: 5940 ng·h/mL for the first, 6150 ng·h/mL for the second.
